Data as given in ChEMBL document CHEMBL4476872, “Inhibitors of cellular metabolic processes” (2018).

The molecules below were run against S-adenosylmethionine synthase isoform type-2 (Homo sapiens, UniProt P31153) (assay: Inhibition of recombinant His6-tagged MAT2A (unknown origin) expressed in SF9 insect cells using L-Met as substrate preincubated for 60 mins followed by substrate and ATP addition and measured after 60 mins by spectrophotometric analysis).
Sequence of S-adenosylmethionine synthase isoform type-2 (P31153 whole entry, canonical isoform): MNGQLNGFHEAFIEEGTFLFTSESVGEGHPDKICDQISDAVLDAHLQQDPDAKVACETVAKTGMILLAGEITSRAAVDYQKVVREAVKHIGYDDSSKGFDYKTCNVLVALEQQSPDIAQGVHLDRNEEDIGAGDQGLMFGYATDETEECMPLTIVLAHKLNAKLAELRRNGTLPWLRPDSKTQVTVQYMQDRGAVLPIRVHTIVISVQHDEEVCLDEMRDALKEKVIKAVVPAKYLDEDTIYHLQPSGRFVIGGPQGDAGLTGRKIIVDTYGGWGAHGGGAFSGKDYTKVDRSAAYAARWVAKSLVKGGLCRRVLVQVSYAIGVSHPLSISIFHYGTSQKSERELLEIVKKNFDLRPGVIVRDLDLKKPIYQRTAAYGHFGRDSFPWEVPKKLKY

IC50 [nM]	SMILES
100 to 1000	Cc1[nH]c2c(N3CCCCC3)c(-c3ccccc3)nn2c(=O)c1-c1ccccc1
< 100	COC(=O)Cc1nc2ccc(-c3c(C)[nH]c4c(-c5ccccc5)c(-c5ccccc5)nn4c3=O)cc2s1
100 to 1000	Cc1[nH]c2c(-c3ccccc3)c(-c3ccccc3)nn2c(=O)c1-c1ccc(OCC(=O)N(C)C)cc1
100 to 1000	COc1ccc(-c2c(CC#N)[nH]c3c(-c4ccccc4)c(-c4ccccc4)nn3c2=O)cc1
